This is an account of results in patent US20260274892A1, “MACROCYCLIC BROAD SPECTRUM ANTIBIOTICS” (RQx Pharmaceuticals, Inc., priority 2017, published 2026).

For assay [1], the system named is Escherichia coli ATCC 25922. Nature of the assay: Minimum inhibitory concentration (MIC), CLSI broth micro-dilution, E. coli. In kind it is cell-based. The conditions noted are these: Escherichia coli, ATCC25922, 22 h, Table 6, cation adjusted Mueller Hinton Broth + 0.002% Tween-80, 35° C. The essentials: (§1)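 Colonies grown 20 h at 35° C on Trypticase Soy agar (MRSA) or Luria agar (E. coli) were suspended in cation-adjusted Mueller Hinton broth with 0.002% Tween-80. Suspensions were added at OD600 0.0005 to 10-point twofold compound dilutions, then incubated 22 h at 35° C.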

Assay [2] deals with Methicillin Resistant Staphylococcus aureus strain USA 200. Nature of the assay: Minimum inhibitory concentration (MIC), CLSI broth micro-dilution, S. aureus. The conditions noted are these: Staphylococcus aureus, MRSA / USA200; Table 6; MRSA USA 200; cation adjusted Mueller Hinton Broth + 0.002% Tween-80; 35° C., 22 hours. In kind it is cell-based. The essentials: as §1
(In broth dilution the organism is exposed to a series of concentrations in liquid medium.)

Take `CCCCc1ccc(Oc2nc(C)c(C(=O)N[C@@H](CCN)C(=O)N(C)[C@@H]3C(=O)N[C@@H](C)C(=O)N[C@H](C(=O)NCC#N)Cc4ccc(OCCN)c(c4)-c4cc3ccc4OCCN)c(C)n2)cc1CCCC` (racemic) [Compound 355, rac-(8S,11S,14S)-3,18-bis(2-aminoethoxy)-N-(cyanomethyl)-11-methyl-14-[methyl-[rac-(2S)-4-amino-2-[[2-(3,4-dibutylphenoxy)-4,6-dimethyl-pyrimidine-5-carbonyl]amino]butanoyl]amino]-10,13-dioxo-9,12-diazatricyclo[13.3.1.12,6]icosa-1(18),2(20),3,5,15(19),16-hexaene-8-carboxamide]: the minimum inhibitory concentration (MIC) in assay [1] was 4 µM; in assay [2], 0.094 µM.

On to `Cc1cc(-c2ccc(OCC(C)(C)C)cc2)nc(C)c1C(=O)N[C@@H](CCN)C(=O)N(C)[C@@H]1C(=O)N[C@@H](C)C(=O)N[C@H](C(=O)NCC#N)Cc2ccc(OCCN)c(c2)-c2cc1ccc2OCCN` (racemic) [Compound 359, rac-(8S,11S,14S)-3,18-bis(2-aminoethoxy)-N-(cyanomethyl)-11-methyl-14-[methyl-[rac-(2S)-4-amino-2-[[6-[4-(2,2-dimethylpropoxy)phenyl]-2,4-dimethyl-pyridine-3-carbonyl]amino]butanoyl]amino]-10,13-dioxo-9,12-diazatricyclo[13.3.1.12,6]icosa-1(18),2(20),3,5,15(19),16-hexaene-8-carboxamide], for which the minimum inhibitory concentration (MIC) amounted to 0.064 µM in assay [1] and 0.008 µM in assay [2].

Regarding `Cc1cc(-c2ccc(OC(C)C)cc2)nc(C)c1C(=O)N[C@@H](CCN)C(=O)N(C)[C@@H]1C(=O)N[C@@H](C)C(=O)N[C@H](C(=O)NCC#N)Cc2ccc(OCCN)c(c2)-c2cc1ccc2OCCN` (racemic) [Compound 360, rac-(8S,11S,14S)-3,18-bis(2-aminoethoxy)-N-(cyanomethyl)-11-methyl-14-[methyl-[rac-(2S)-4-amino-2-[[6-(4-isopropoxyphenyl)-2,4-dimethyl-pyridine-3-carbonyl]amino]butanoyl]amino]-10,13-dioxo-9,12-diazatricyclo[13.3.1.12,6]icosa-1(18),2(20),3,5,15(19),16-hexaene-8-carboxamide], the figures for the MIC in assay [1] and in assay [2] were 0.26 µM and 0.066 µM, respectively.

`Cc1cc(-c2ccc3c(c2)CCC3(C)C)nc(C)c1C(=O)N[C@@H](CCN)C(=O)N(C)[C@@H]1C(=O)N[C@@H](C)C(=O)N[C@H](C(=O)NCC#N)Cc2ccc(OCCN)c(c2)-c2cc1ccc2OCCN` (racemic) [Compound 361, rac-(8S,11S,14S)-3,18-bis(2-aminoethoxy)-N-(cyanomethyl)-11-methyl-14-[methyl-[rac-(2S)-4-amino-2-[[6-(1,1-dimethylindan-5-yl)-2,4-dimethyl-pyridine-3-carbonyl]amino]butanoyl]amino]-10,13-dioxo-9,12-diazatricyclo[13.3.1.12,6]icosa-1(18),2(20),3,5,15(19),16-hexaene-8-carboxamide]: the results for the minimum inhibitory concentration (MIC) in assay [1] and in assay [2] were 0.13 µM and 0.016 µM, respectively.

For the compound `CCCCCOc1ccc(-c2cc(C)c(C(=O)N[C@@H](CCN)C(=O)N(C)[C@@H]3C(=O)N[C@@H](C)C(=O)N[C@H](C(=O)NCC#N)Cc4ccc(OCCN)c(c4)-c4cc3ccc4OCCN)c(C)n2)cc1` (racemic) [Compound 362, rac-(8S,11S,14S)-3,18-bis(2-aminoethoxy)-N-(cyanomethyl)-11-methyl-14-[methyl-[rac-(2S)-4-amino-2-[[2,4-dimethyl-6-(4-pentoxyphenyl)pyridine-3-carbonyl]amino]butanoyl]amino]-10,13-dioxo-9,12-diazatricyclo[13.3.1.12,6]icosa-1(18),2(20),3,5,15(19),16-hexaene-8-carboxamide], the MIC in assay [1] stood at 0.25 µM; in assay [2] it was 0.063 µM.

By MIC is commonly meant the lowest concentration that inhibits growth of the organism.
